# Source: patent publication US12486294B2, “Radioisotope labeled compound for imaging or treatment of prostate cancer” (SEOUL NATIONAL UNIVERSITY R&DB FOUNDATION, priority 2019, dated 2025)
# Columns and labels:
# PSMA = PSMA (Homo sapiens, UniProt Q04609); settings: 22Rv1 cells, 1 hour at 37° C., non-specific binding with 250 μM PMPA, nonlinear regression
# Method: The PSMA-positive prostate cancer cell line 22Rv1 was placed in a 24-well plate at the density of 1×10^5 cells/well, followed by culture in a 37° C., 5% CO2 incubator for 24 hours. […] 0.5 mL of the diluted solution was taken and put into cultured cells and incubated in a 37° C., 5% CO2 incubator for 1 hour. After removing the culture medium, the cells were washed twice with fresh culture medium, 1 mL of 0.5% sodium dodecyl sulfate (SDS) dissolved in phosphate buffered saline was added thereto, gently shaken to dissolve, and then transferred to a 5 mL disposable plastic test tube. The radioactivity of the tube was measured using a gamma counter. […] Specific binding was obtained by subtracting non-specific binding from total binding, and a saturation curve was drawn. […] From these saturation curves, the dissociation constant, Kd, was calculated by nonlinear regression using GraphPad Prism 7 program.
# [1] = system: PSMA-targeted 22Rv1 tumor; test: In vivo distribution test in cancer transplantation animals; design: species or system BALB/c male nude mice
# Method: Specifically, 0.1 mL of RPMI1640 culture medium containing 5×10^6 22 Rv1 cells was subcutaneously injected into the left flank of a 4-week-old male BALB/c nude mouse. After 2 to 3 weeks, the present inventors confirmed that the tumor tissue had reached an appropriate size and used it in the experiment. For animal injection, [^99mTc]Tc-15 prepared in Example 3 and [^99mTc]Tc-16 prepared in Example 4 were each diluted in saline for injection to a concentration of 0.74 MBq/100 μL. Each of these was injected into the tail vein of the mice transplanted with cancer cells, and after 1 hour and 4 hours, cancer, blood, muscle, heart. Lung, liver, spleen, stomach, small intestine, kidney, bone, and the like were collected and their weight and radioactivity were measured.
# [2] = system: PSMA-expressing 22Rv1 tumor; test: SPECT imaging in 22Rv1 cell-transplanted mice; assay type: in vivo, BALB/c nude mouse; settings: for tumor intake in SPECT image: intravenous injection
# Method: Specifically, 0.1 mL of RPMI1640 culture medium containing 5×10^6 22 Rv1 cells was subcutaneously injected into the right back of a 4-week-old male BALE/c nude mouse. After 2 to 3 weeks, the present inventors confirmed that the tumor tissue had reached an appropriate size and used it in the experiment. For animal injection, [^99mTc]Tc-15 and [^99mTc]Tc-16 were each diluted in saline for injection to a concentration of 10.2 MBq/100 μL. […]
# [3] = Stability test in human serum; assay type: in vitro ADME; settings: 36.5° C., after 2 hours
# Method: The stability test in human serum is to test the stability when it comes into contact with human serum after administration to the human body, and the stability in the body is partly tested in vitro.
# In order to examine the stability of [^99mTc]Tc-15 according to the present invention in human serum, 3.7 MBq of [^99mTc]Tc-15 (100 μL) prepared in Example 3 was added to 1 mL of human serum, mixed well, and then cultured at 36.5° C. with stirring. After 2 hours, the reaction mixture was analyzed by ITLC.
# In order to examine the stability of [^99mTc]Tc-16 according to the present invention in human serum, 3.7 MBq of [^99mTc]Tc-16 (100 μL) prepared in Example 4 was added to 1 mL of human serum, mixed well, and then cultured at 36.5° C. with stirring. After 2 hours, the reaction mixture was analyzed by ITLC.
# [4] = 1 h Blockade, co-injection of 2-PMPA (100 μg)
# [5] = 4 h Blockade, co-injection of 2-PMPA (100 μg)
# PSMA, sequence (Q04609 whole entry): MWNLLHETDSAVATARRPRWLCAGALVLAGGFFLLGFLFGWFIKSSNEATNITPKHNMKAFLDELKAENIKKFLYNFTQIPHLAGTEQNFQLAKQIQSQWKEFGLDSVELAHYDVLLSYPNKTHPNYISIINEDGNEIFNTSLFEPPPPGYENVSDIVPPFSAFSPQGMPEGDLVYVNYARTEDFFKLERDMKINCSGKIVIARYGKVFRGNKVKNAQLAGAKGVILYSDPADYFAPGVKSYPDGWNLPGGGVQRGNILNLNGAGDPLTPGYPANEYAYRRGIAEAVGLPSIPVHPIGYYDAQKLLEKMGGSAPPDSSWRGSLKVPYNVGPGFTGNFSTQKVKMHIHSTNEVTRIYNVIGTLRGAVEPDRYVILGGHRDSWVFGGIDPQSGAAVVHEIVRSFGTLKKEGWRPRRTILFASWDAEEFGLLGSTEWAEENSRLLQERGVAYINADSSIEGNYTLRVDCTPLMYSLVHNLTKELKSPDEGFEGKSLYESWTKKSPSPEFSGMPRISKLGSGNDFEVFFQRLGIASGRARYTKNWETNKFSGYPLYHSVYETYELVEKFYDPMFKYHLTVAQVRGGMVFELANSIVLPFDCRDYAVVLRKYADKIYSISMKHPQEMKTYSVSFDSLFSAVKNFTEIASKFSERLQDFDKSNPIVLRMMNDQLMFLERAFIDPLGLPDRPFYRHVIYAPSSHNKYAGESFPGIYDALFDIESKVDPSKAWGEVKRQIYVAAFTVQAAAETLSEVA
smiles,measurement,setting,value
[99Tc+].[C-]#[N+]CCC(=O)NCCCCCC(=O)NC(Cc1ccccc1)C(=O)N[C@H](Cc1ccccc1)C(=O)NCCCCCC(=O)NCCCCC(NC(=O)N[C@@H](CCC(=O)O)C(=O)O)C(=O)O.[C-]#[N+]CCC(=O)NCCCCCC(=O)NC(Cc1ccccc1)C(=O)N[C@H](Cc1ccccc1)C(=O)NCCCCCC(=O)NCCCCC(NC(=O)N[C@@H](CCC(=O)O)C(=O)O)C(=O)O.[C-]#[N+]CCC(=O)NCCCCCC(=O)NC(Cc1ccccc1)C(=O)N[C@H](Cc1ccccc1)C(=O)NCCCCCC(=O)NCCCCC(NC(=O)N[C@@H](CCC(=O)O)C(=O)O)C(=O)O.[C-]#[O+].[C-]#[O+].[C-]#[O+] (stereo partly shown) [[^99mTc]Tc-16],Kd,PSMA,0.2 nM
same,"In vivo distribution, Blood",[1]; 1 h,0.42 % ID/g
same,"In vivo distribution, Bone",[1]; 1 h,0.63 % ID/g
same,"In vivo distribution, Heart",[1]; 1 h,0.36 % ID/g
same,"In vivo distribution, Intestine",[1]; 1 h,0.47 % ID/g
same,"In vivo distribution, Kidney",[1]; 1 h,24.66 % ID/g
same,"In vivo distribution, Liver",[1]; 1 h,1.17 % ID/g
same,"In vivo distribution, Lung",[1]; 1 h,0.52 % ID/g
same,"In vivo distribution, Muscle",[1]; 1 h,0.13 % ID/g
same,"In vivo distribution, Spleen",[1]; 1 h,3.40 % ID/g
same,"In vivo distribution, Stomach",[1]; 1 h,0.85 % ID/g
same,"In vivo distribution, Tail",[1]; 1 h,0.49 % ID/g
same,"In vivo distribution, Tumor",[1]; 1 h,1.87 % ID/g
same,Tumor/blood,[1]; 1 h,4.43
same,Tumor/kidney,[1]; 1 h,0.08
same,Tumor/liver,[1]; 1 h,1.60
same,Tumor/muscle,[1]; 1 h,14.05
same,"In vivo distribution, Blood",[1]; [4],0.75 % ID/g
same,"In vivo distribution, Bone",[1]; [4],1.16 % ID/g
same,"In vivo distribution, Heart",[1]; [4],0.48 % ID/g
same,"In vivo distribution, Intestine",[1]; [4],0.85 % ID/g
same,"In vivo distribution, Kidney",[1]; [4],5.66 % ID/g
same,"In vivo distribution, Liver",[1]; [4],1.95 % ID/g
same,"In vivo distribution, Lung",[1]; [4],1.63 % ID/g
same,"In vivo distribution, Muscle",[1]; [4],0.22 % ID/g
same,"In vivo distribution, Spleen",[1]; [4],0.40 % ID/g
same,"In vivo distribution, Stomach",[1]; [4],1.04 % ID/g
same,"In vivo distribution, Tail",[1]; [4],1.18 % ID/g
same,"In vivo distribution, Tumor",[1]; [4],0.45 % ID/g
same,Tumor/blood,[1]; [4],0.61
same,Tumor/kidney,[1]; [4],0.08
same,Tumor/liver,[1]; [4],0.23
same,Tumor/muscle,[1]; [4],2.16
same,"In vivo distribution, Blood",[1]; 4 h,0.17 % ID/g
same,"In vivo distribution, Bone",[1]; 4 h,1.04 % ID/g
same,"In vivo distribution, Heart",[1]; 4 h,0.25 % ID/g
same,"In vivo distribution, Intestine",[1]; 4 h,1.48 % ID/g
same,"In vivo distribution, Kidney",[1]; 4 h,39.65 % ID/g
same,"In vivo distribution, Liver",[1]; 4 h,0.69 % ID/g
same,"In vivo distribution, Lung",[1]; 4 h,0.36 % ID/g
same,"In vivo distribution, Muscle",[1]; 4 h,0.07 % ID/g
same,"In vivo distribution, Spleen",[1]; 4 h,3.44 % ID/g
same,"In vivo distribution, Stomach",[1]; 4 h,0.42 % ID/g
same,"In vivo distribution, Tail",[1]; 4 h,0.48 % ID/g
same,"In vivo distribution, Tumor",[1]; 4 h,2.83 % ID/g
same,Tumor/blood,[1]; 4 h,16.70
same,Tumor/kidney,[1]; 4 h,0.07
same,Tumor/liver,[1]; 4 h,4.17
same,Tumor/muscle,[1]; 4 h,40.43
same,"In vivo distribution, Blood",[1]; [5],0.15 % ID/g
same,"In vivo distribution, Bone",[1]; [5],0.47 % ID/g
same,"In vivo distribution, Heart",[1]; [5],0.11 % ID/g
same,"In vivo distribution, Intestine",[1]; [5],1.26 % ID/g
same,"In vivo distribution, Kidney",[1]; [5],3.59 % ID/g
same,"In vivo distribution, Liver",[1]; [5],1.33 % ID/g
same,"In vivo distribution, Lung",[1]; [5],0.45 % ID/g
same,"In vivo distribution, Muscle",[1]; [5],0.05 % ID/g
same,"In vivo distribution, Spleen",[1]; [5],0.20 % ID/g
same,"In vivo distribution, Stomach",[1]; [5],0.23 % ID/g
same,"In vivo distribution, Tail",[1]; [5],0.53 % ID/g
same,"In vivo distribution, Tumor",[1]; [5],0.39 % ID/g
same,Tumor/blood,[1]; [5],2.67
same,Tumor/kidney,[1]; [5],0.11
same,Tumor/liver,[1]; [5],0.30
same,Tumor/muscle,[1]; [5],8.44
same,intake when PSMA was blocked with PMPA,[1]; summary of Tables 2 and 3,the intake was decreased
same,tissue with highest intake,[1]; summary of Tables 2 and 3,the highest intake in the kidney
same,tumor intake in SPECT image with PSMA blocked,[2]; MIP-1072 injected to selectively block PSMA,tumor intake was not observed
same,tumor intake in SPECT image,[2]; 1 hour after the injection,the increase in radioactivity was evident
same,tumor intake in SPECT image,[2]; 4 hours after the injection,the intake was more distinct
same,distribution observed in SPECT image,"[2]; tail vein injection, 1 hour and 3 hours",not only excreted by the kidney but also ingested into the prostate cancer tissue
same,"intake in prostate cancer in SPECT image, compared between the two labeled compounds","[2]; tail vein injection, FIGS. 4A and 5A",higher intake in prostate cancer
same,stability in human serum (ITLC),[3],most of them were present as [^99mTc]Tc-16 and hardly separated as ^99mTc
